Biological target: recombinant human Myt1 (full length PKMYT1) (Homo sapiens (Human), UniProt Q99640)
Assay: Recombinant human Myt1 kinase assay (ADP-Glo)
Assay type: biochemical
Conditions: 10 μM ATP
Outline: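 Full-length insect-cell-expressed human Myt1 (18 nM final) was preincubated with compound (0.5% DMSO) for 15 min at 22 °C. The reaction ran with 10 μM ATP for 60 min at 30 °C in HEPES buffer with Mg2+/Mn2+ and DTT. ADP formed was read by ADP-Glo luminescence, giving IC50 and % max inhibition.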

Sequence of recombinant human Myt1 (full length PKMYT1) (Q99640 whole entry): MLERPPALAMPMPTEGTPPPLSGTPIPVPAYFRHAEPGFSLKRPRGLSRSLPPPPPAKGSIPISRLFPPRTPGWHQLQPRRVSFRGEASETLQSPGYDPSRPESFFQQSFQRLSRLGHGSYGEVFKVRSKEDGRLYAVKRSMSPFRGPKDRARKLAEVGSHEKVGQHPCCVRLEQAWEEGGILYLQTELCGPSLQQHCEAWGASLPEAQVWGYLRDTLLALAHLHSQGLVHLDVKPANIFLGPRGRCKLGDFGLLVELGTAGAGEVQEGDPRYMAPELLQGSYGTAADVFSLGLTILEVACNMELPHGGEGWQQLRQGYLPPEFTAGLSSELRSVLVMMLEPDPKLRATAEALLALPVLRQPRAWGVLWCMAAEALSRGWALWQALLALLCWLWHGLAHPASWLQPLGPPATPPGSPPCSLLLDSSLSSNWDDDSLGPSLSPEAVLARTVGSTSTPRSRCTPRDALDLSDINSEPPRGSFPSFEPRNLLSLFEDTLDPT

IC50 [nM] | Compound
> 2000 | Cc1ccc2[nH]ncc2c1-c1cc(-c2ccnc(OCCc3ccncn3)n2)nc(C(N)=O)c1N [Compound 311]
266 | COCC(=O)c1ccccc1-c1nc(C(N)=O)c(N)c(-c2c(C)ccc3[nH]ncc23)n1 [Compound 793]
3 | Cc1ccc2[nH]ncc2c1-c1cc(-c2cccc(OCC3(N)CC3)n2)nc(C(N)=O)c1N (atropisomer, axis not shown) [Compound 382]
2 | Cc1ccc2[nH]ncc2c1-c1cc(-c2ccnc(N[C@@H](CO)c3ccccc3)n2)nc(C(N)=O)c1N (atropisomer, axis not shown) [Compound 362]
35 | CCC(CC)COc1cccc(-c2cc(-c3c(C)ccc4[nH]ncc34)c(N)c(C(N)=O)n2)n1 [Compound 350]
18 | Cc1ccc2[nH]ncc2c1-c1cc(-c2ccnc(OCc3cncn3C3CCCCC3)n2)nc(C(N)=O)c1N [Compound 328]
30 | Cc1ccc2[nH]ncc2c1-c1nc(-c2cccc(CN3CCOCC3)c2)nc(C(N)=O)c1N [Compound 283]
20 | CNC(=O)c1cccc(-c2nc(C(N)=O)c(N)c(-c3c(C)ccc4[nH]ncc34)n2)c1 [Compound 285]
5 | Cc1ccc2[nH]ncc2c1-c1nc(-c2cccc3nnsc23)nc(C(N)=O)c1N [Compound 390]
17 | Cc1ccc2[nH]ncc2c1-c1nc(-c2cccc(OCC(=O)O)c2)nc(C(N)=O)c1N [Compound 294]
643 | Cc1ccc2[nH]ncc2c1-c1cc(-c2cccc(OC[C@H]3CCCO3)n2)nc(C(N)=O)c1N (atropisomer, axis not shown) [Compound 388]
43 | Cc1ccc2[nH]ncc2c1-c1nc(-c2cccc(Cl)c2N)nc(C(N)=O)c1N [Compound 444]
15 | CC(=O)Nc1cccc(-c2nc(C(N)=O)c(N)c(-c3c(C)ccc4[nH]ncc34)n2)c1 [Compound 298]
14 | Cc1ccc2[nH]ncc2c1-c1cc(-c2cccc(OC[C@H]3CCCN3)n2)nc(C(N)=O)c1N [Compound 374]
14 | Cc1ccc2[nH]ncc2c1-c1cc(-c2ccnc(OCCn3cccn3)n2)nc(C(N)=O)c1N [Compound 329]
> 2000 | COc1cccc(-c2cccc(-c3cc(-c4c(C)ccc5[nH]ncc45)c(N)c(C(N)=O)n3)n2)c1 [Compound 340, 5-amino-6′-(3-methoxyphenyl)-4-(5-methyl-1H-indazol-4-yl)-[2,2′-bipyridine]-6-carboxamide]
18 | Cc1ccc2[nH]ncc2c1-c1nc(-c2cccc(C(=O)N3CCOCC3)c2)nc(C(N)=O)c1N [Compound 289]
138 | Cc1ccc2[nH]ncc2c1-c1cc(-c2ccnc(N3CCC(O)(c4ccccc4)CC3)n2)nc(C(N)=O)c1N [Compound 349]
14 | Cc1ccc2[nH]ncc2c1-c1cc(-c2ccnc(OCCc3cnccn3)n2)nc(C(N)=O)c1N [Compound 310]
> 2000 | NC(=O)c1nc(-c2cccnc2)cc(-c2c(C(F)(F)F)ccc3[nH]ncc23)c1N [Compound 325]
330 | CCC(COc1cccc(-c2cc(-c3c(C)ccc4[nH]ncc34)c(N)c(C(N)=O)n2)c1)OC (stereo not drawn) [Compound 360]
15 | Cc1ccc2[nH]ncc2c1-c1cc(-c2ccnc(N3CC[C@H](O)C3)n2)nc(C(N)=O)c1N [Compound 348]
69 | Cc1ccc2[nH]ncc2c1-c1cc(-c2ccnc(O[C@H](C)c3ncccn3)n2)nc(C(N)=O)c1N (atropisomer, axis not shown) [Compound 358]
4 | Cc1ccc2[nH]ncc2c1-c1cc(-c2ccnc(N[C@H]3CC[C@H](O)CC3)n2)nc(C(N)=O)c1N [Compound 369]
4 | Cc1ccc2[nH]ncc2c1-c1cc(-c2ccnc(N3CCC(O)CC3)n2)nc(C(N)=O)c1N [Compound 359]

More lines, now with the values behind:

Compound | IC50 [nM]
Cc1ccc2[nH]ncc2c1-c1cc(-c2ccnc(OC3CCOCC3)n2)nc(C(N)=O)c1N (atropisomer, axis not shown) [Compound 231] | 231
Cc1ccc2[nH]ncc2c1-c1nc(-c2ccc(C(F)(F)F)cc2)nc(C(N)=O)c1N [Compound 104] | 317
Cc1ccc(O)cc1-c1nc(-c2ccc(N)nc2)nc(C(N)=O)c1N [Compound 33] | 52
Cc1ccc2[nH]ncc2c1-c1cc(-c2cccc(OCc3nccc(N4CCOCC4)n3)n2)nc(C(N)=O)c1N [Compound 259] | 584
CNc1ccc(-c2nc(C(N)=O)c(N)c(-c3c(C)ccc4[nH]ncc34)n2)cc1 [Compound 152] | 44
COc1cc(-c2nc(C(N)=O)c(N)c(-c3cc(O)ccc3C)n2)ccn1 [Compound 25] | 15
Cc1ccc2[nH]ncc2c1-c1nc(-c2ccnc(C(F)(F)F)c2)nc(C(N)=O)c1N [Compound 153] | 27
Cc1ccc(O)cc1-c1cc(C(N)=O)nc2ccccc12 [Compound 74, 4-(5-hydroxy-2-methylphenyl)quinoline-2-carboxamide] | 2880
Cc1ccc2[nH]ncc2c1-c1nc(-c2cccc(N(C)C)c2)nc(C(N)=O)c1N [Compound 139] | 57
CNc1cccc(-c2nc(C(N)=O)c(N)c(-c3c(C)ccc4[nH]ncc34)n2)c1 [Compound 140] | 48
Cc1ccc2[nH]ncc2c1-c1nc(-c2ccc3cn[nH]c3c2)nc(C(N)=O)c1N [Compound 129] | 23
Cc1ccc2[nH]ncc2c1-c1cc(-c2ccnc(OCCOc3ccccc3)n2)nc(C(N)=O)c1N [Compound 195] | 182
Cc1ccc2[nH]ncc2c1-c1cc(-c2cn(C)cn2)nc(C(N)=O)c1N [Compound 172] | 53
Cc1ccc2[nH]ncc2c1-c1nc(-c2cccc(Cl)c2)nc(C(N)=O)c1N [Compound 111] | 44
Cc1ccc2[nH]ncc2c1-c1nc(-c2ccc(N3CCOCC3)cc2)nc(C(N)=O)c1N [Compound 103] | 94
Cc1ccc(-c2nc(C(N)=O)c(N)c(-c3cc(O)ccc3C)n2)cc1 [Compound 20] | 105
Cc1ccc2n[nH]cc2c1-c1cc(-c2cccc(OC[C@@H](N)c3ccccc3)n2)nc(C(N)=O)c1N [Compound 277] | 162
Cc1ccc2[nH]ncc2c1-c1cc(-c2cccc(OCc3ccn(C)n3)n2)nc(C(N)=O)c1N [Compound 248] | 71
CC(=O)c1ccc(-c2nc(C(N)=O)c(N)c(-c3c(C)ccc4[nH]ncc34)n2)cc1 [Compound 128] | 57
Cc1ccc2[nH]ncc2c1-c1cc(-c2cccc(Oc3ccccn3)n2)nc(C(N)=O)c1N [Compound 202] | 107
Cc1ccc2[nH]ncc2c1-c1cc(-c2cccc(OCc3ncccn3)n2)nc(C(N)=O)c1N (atropisomer, axis not shown) [Compound 234] | 1880
Cc1ccc2[nH]ncc2c1-c1cc(-c2cccc(N3CCSCC3)n2)nc(C(N)=O)c1N [Compound 187] | 78
CCCCc1cc(-c2c(C)ccc3[nH]ncc23)c(N)c(C(N)=O)n1 [Compound 216, 3-amino-6-butyl-4-(5-methyl-1H-indazol-4-yl)picolinamide] | 1510
Cc1ccc(O)cc1-c1nc(-c2ccn(C)c(=O)c2)nc(C(N)=O)c1N [Compound 36] | 92
Cc1ccc2[nH]ncc2c1-c1nc(-c2cccc(-n3cccn3)c2)nc(C(N)=O)c1N [Compound 282] | 13
Cc1ccc2[nH]ncc2c1-c1cc(-c2cccc(N3CCOCC3)n2)nc(C(N)=O)c1N [Compound 217] | 13

Source: US20250304537A1 (Repare Therapeutics Inc., priority 2022, published 2025)
